Data from paper PMC11012124, “Synthesis of Novel Triazine-Based Chalcones and 8,9-dihydro-7H-pyrimido[4,5-b][1,4]diazepines as Potential Leads in the Search of Anticancer, Antibacterial and Antifungal Agents” (International Journal of Molecular Sciences, 2024).
Converted amounts (≈) assume the structure as drawn. Like-named read-outs stand apart in the source and are kept apart here.

Assays:
[1] = system: Candida albicans (ATCC 10231); assay: Antifungal broth microdilution (CLSI); type: cell-based; conditions: ATCC10231; Ca: Candida albicans
Description: (§1) Several of the obtained triazine derivatives were evaluated against sensitive fungal species comprising of two yeasts (Candida albicans (ATCC 10231), Cryptococcus neoformans (ATCC 32264)), three dermatophytes (Microsporum gypseum (CCC 115), Trichophyton rubrum (CCC 134-2000), Trichophyton mentagrophytes (CCC 202-2000)), and three Aspergillus fungi ((A. [NT] 26934), A. niger (ATCC 9029), and A. flavus (ATCC 9170)). […] Broth microdilution techniques were performed in 96-well microplates according to the Reference Method for Broth Dilution Antifungal Susceptibility Testing of Yeasts, document M27-A3 [86] and of Filamentous Fungi […]-A8 [87]. […] An inoculum suspension (100 μL) was added to each well (final well volume = 200 μL). One growth control well (containing medium, inoculum, and the same amount of DMSO as used for each compound) and one sterility control well (sample, medium, and sterile water instead of inoculum) were included for each fungus tested. Microtiter plates were incubated in a dark, humid chamber at 30 °C for the time necessary for each fungus. Amphotericin B, Terbinafine, Fluconazole and Itraconazole were used as a positive control. The tests were performed in triplicate.

[2] = system: Cryptococcus neoformans (ATCC 32264); assay: Antifungal broth microdilution (CLSI); type: cell-based; conditions: ATCC32264; Cn: Cryptococcus neoformans
Description: as §1

[3] = system: N. gonorrhoeae ATCC 49226; assay: MIC on GC agar plates; type: cell-based, Neisseria gonorrhoeae
Description: An initial screening for bacterial inhibition was performed by the agar diffusion method. […] DMSO and TSB were included as negative controls. Gentamicin and trimethoprim sulfamethoxazole were included as a positive control for growth inhibition. Derivatives showing growth inhibition were tested at least twice before being selected for the microdilution test. For N. gonorrhoeae, the agar diffusion method was also used for screening with some modifications. […] Penicillin and tetracycline were used as controls. […] Briefly, GC agar supplemented with 1% isovitalex was prepared with increasing concentrations of the new compounds and inoculated with 10 µL of a bacterial suspension (1 × 10^4 CFU). The lowest concentration of the compound that inhibited bacterial growth was determined as the MIC. Bacterial growth was examined and verified using the oxidase test. The experiments were performed in duplicate in at least two independent assays.

[4] = system: N. gonorrhoeae ATCC 49226; conditions: control drugs, range in parenthesis; cited from earlier work
RXF 393 = assay: cells; conditions: Homo sapiens, RXF 393, 48 h
CAKI-1 = assay: cells; conditions: Homo sapiens, CAKI-1, 48 h
[5] = system: M. tuberculosis ATCC 27294; assay: Antitubercular broth microdilution MIC; type: cell-based; conditions: Mycobacterium tuberculosis; M. tuberculosis ATCC 27294 (H37Rv); read-out: Minimum inhibitory concentration (MIC)
60 cancer cell lines = assay: NCI-60 one-dose screen (10 μM); type: cell-based; conditions: Homo sapiens; one dose of 10 μM, mean over 60 cancer cell lines; read-out: Mean Growth Percent (MGP)
Description: Additionally, the mean of the growth percentages (MGP) of each compound against all the 60 cancer cell lines is also reported, which is used as one of the selection criteria to continue with tests at five concentration doses.

MOLT-4 = assay: cells; conditions: Homo sapiens, MOLT-4, 48 h
A. niger (ATCC 9029) = assay: Antifungal broth microdilution (CLSI); type: cell-based; conditions: ATCC9029; Ani: Aspergillus niger
Description: as §1

[6] = system: Trichophyton rubrum (CCC 134-2000); assay: Antifungal broth microdilution (CLSI); type: cell-based; conditions: Tr: Trichophyton rubrum
Description: as §1

[7] = system: Trichophyton mentagrophytes (CCC 202-2000); assay: Antifungal broth microdilution (CLSI); type: cell-based; conditions: Tm: Trichophyton mentagrophytes
Description: as §1

[8] = system: Microsporum gypseum (CCC 115); assay: Antifungal broth microdilution (CLSI); type: cell-based; conditions: Nannizzia gypsea; Mg: Microsporum gypseum
Description: as §1

A. flavus (ATCC 9170) = assay: Antifungal broth microdilution (CLSI); type: cell-based; conditions: ATCC9170; Afl: Aspergillus flavus
Description: as §1

[9] = system: A. fumigatus (ATCC 26934); assay: Antifungal broth microdilution (CLSI); type: cell-based; conditions: ATCC26934; Afu: Aspergillus fumigatus
Description: as §1

HCT-116 = assay: cells; conditions: Homo sapiens, HCT-116, 48 h
[10] = Hemolytic activity, spectrophotometric; type: cell-based, human; conditions: human, human red blood cells (huRBC), 5% hematocrit, 200 μg/mL, 37 °C
Galleria mellonella = assay: Toxicity in the Galleria mellonella model; conditions: G. mellonella larvae, at the higher doses
Description: G mellonella larvae were cultivated in the laboratory and healthy, beige larvae weighing 150–200 mg, were selected for toxicity assays.

[11] = system: human red blood cells (huRBC); assay: Hemolytic activity, spectrophotometric; type: cell-based; conditions: 200 μg/mL, 24 h, 37 °C
S. aureus ATCC 43300 [12] = conditions: tetracycline; cited from earlier work
S. aureus ATCC 43300 [13] = assay: Antibacterial MIC, microdilution; type: cell-based; conditions: Staphylococcus aureus; S. aureus ATCC 43300 (MRSA)
AChE = system: AChE; set-up: method as in PMID 34795867, PMID 35252706, doi:10.1016/j.molstruc.2021.132275, PMID 18811208, doi:10.1016/j.molstruc.2022.132498; conditions: cited from earlier work
[14] = system: Mycobacterium tuberculosis H37Rv; set-up: method as in PMID 34795867, PMID 35252706, doi:10.1016/j.molstruc.2021.132275, PMID 18811208, doi:10.1016/j.molstruc.2022.132498; conditions: cited from earlier work
[15] = Neisseria gonorrhoeae, ATCC49226, read-out: MIC

| Compound | MIC [1] [µg/mL] | MIC [2] [µg/mL] | MIC [3, 15] [µg/mL] | activity at 10 µM (60 cancer cell lines) [%] | MIC (A. niger (ATCC 9029)) [µg/mL] | MIC [6] [µg/mL] | MIC [7] [µg/mL] | MIC [8] [µg/mL] | MIC (A. flavus (ATCC 9170)) [µg/mL] | MIC [9] [µg/mL] | hemolysis at 24 h, 200 µg/mL [10] [%] | other results |
| --- | --- | --- | --- | --- | --- | --- | --- | --- | --- | --- | --- | --- |
| OC(Cn1cncn1)(Cn1cncn1)c1ccc(F)cc1F [Fluconazole, reference compound] | 0.03 (≈ 0.098 µM) | 0.25 (≈ 0.816 µM) | – | – | – | – | – | – | – | – | – | – |
| Penicillin [reference compound] | – | – | – | – | – | – | – | – | – | – | – | MIC [3]: 0.25 µg/mL; MIC range values for this strain [4]: 0.25 to 1.0 µg/mL |
| COc1cc(C2CC(c3ccc(C(F)(F)F)cc3)=Nc3c(N)nc(N)nc3N2)ccc1Oc1nc(Nc2ccc(F)cc2)nc(N(C)C)n1 (stereo not shown) [29g] | > 250 | > 250 | ≥ 500 | 40.9 | > 250 | > 250 | > 250 | 125 (≈ 185 µM) | > 250 | > 250 | – | GI50 (RXF 393): 1220 nM; CC50 (RXF 393; read-out: LC50): 34100 nM; GI50 (CAKI-1): 1650 nM; CC50 (CAKI-1; read-out: LC50): > 100000 nM; MIC [5]: 5 µg/mL (≈ 7.4 µM); GI50 (MOLT-4): 1710 nM; CC50 (MOLT-4; read-out: LC50): > 100000 nM; GI50 (HCT-116): 1760 nM; CC50 (HCT-116; read-out: LC50): 7560 nM |
| CN(C/C=C/C#CC(C)(C)C)Cc1cccc2ccccc12 [Terbinafine, reference compound] | – | – | – | – | – | 0.01 (≈ 0.0343 µM) | 0.025 (≈ 0.0858 µM) | 0.04 (≈ 0.137 µM) | – | – | – | – |
| COc1ccc(C2=Nc3c(N)nc(N)nc3NC(c3ccc(Oc4nc(Nc5ccc(F)cc5)nc(N(C)C)n4)c(OC)c3)C2)cc1 (stereo not shown) [29c] | > 250 | > 250 | 62.5 (≈ 98 µM) | 64.2 | > 250 | > 250 | > 250 | 125 (≈ 196 µM) | > 250 | > 250 | 2.9 | MIC [5]: 1.2 µg/mL (≈ 1.88 µM) |
| COc1cc(C2CC(c3ccc(S(=O)(=O)NCCNc4nc(N(C)C)nc(N5CCOCC5)n4)cc3)=Nc3c(N)nc(N)nc3N2)cc(OC)c1OC (stereo not shown) [30d] | > 250 | > 250 | 16.1 (≈ 21.5 µM) | 95 | > 250 | 125 (≈ 167 µM) | > 250 | > 250 | > 250 | > 250 | 11 | mortality (Galleria mellonella): ≤ 25% |
| COc1cc(C2CC(c3ccc(C(F)(F)F)cc3)=Nc3c(N)nc(N)nc3N2)ccc1Oc1nc(NCCO)nc(N2CCOCC2)n1 (stereo not shown) [28g] | – | – | 8 (≈ 12 µM) | 99.4 | – | – | – | – | – | – | – | % Hemolysis [11]: 100% |
| COc1cc(C2CC(c3ccc(F)cc3)=Nc3c(N)nc(N)nc3N2)ccc1Oc1nc(Nc2ccc(F)cc2)nc(N(C)C)n1 (stereo not shown) [29f] | > 250 | > 250 | 0.5 (≈ 0.799 µM) | 45.2 | > 250 | > 250 | > 250 | 125 (≈ 200 µM) | > 250 | > 250 | 0 | MIC [5]: 2.5 µg/mL (≈ 4 µM) |
| CC(=O)c1ccc(S(=O)(=O)NCCNc2nc(N(C)C)nc(N3CCOCC3)n2)cc1 [compound 17] | > 250 | > 250 | – | 108 | > 250 | 125 (≈ 278 µM) | > 250 | > 250 | > 250 | > 250 | 1.6 | – |
| CN(C)[C@@H]1C(O)=C(C(N)=O)C(=O)[C@@]2(O)C(O)=C3C(=O)c4c(O)cccc4[C@@](C)(O)[C@H]3C[C@@H]12 [Tetracycline, reference compound] | – | – | 1 (≈ 2.25 µM) | – | – | – | – | – | – | – | – | MIC range (S. aureus ATCC 43300 [12]): 0.05 to 0.25 µg/mL; MIC range values for this strain [4]: 0.25 to 1.0 µg/mL; MIC (S. aureus ATCC 43300 [13]): 0.05 µg/mL (≈ 0.113 µM) |
| CN(c1nc(Cl)nc(N2CCN(Cc3nc4ccccc4[nH]3)CC2)n1)C1CCCCC1 [compound 2] | – | – | – | – | – | – | – | – | – | – | – | IC50 (AChE): 44 nM |
| O=C(/C=C/c1ccc(F)cc1F)c1ccc(Nc2nc(Cl)nc(Cl)n2)cc1 [compound 3] | – | – | – | – | – | – | – | – | – | – | – | MIC [14]: 3.125 µg/mL (≈ 7.67 µM) |
| C[C@@H]1[C@H](O)[C@@H](C)/C=C/C=C/C=C/C=C/C=C/C=C/C=C/[C@H](O[C@@H]2O[C@H](C)[C@@H](O)[C@H](N)[C@@H]2O)C[C@@H]2O[C@](O)(C[C@@H](O)C[C@@H](O)[C@H](O)CC[C@@H](O)C[C@@H](O)CC(=O)O[C@H]1C)C[C@H](O)[C@H]2C(=O)O [Amphotericin B, reference compound] | 0.5 (≈ 0.541 µM) | 0.25 (≈ 0.271 µM) | – | – | 0.5 (≈ 0.541 µM) | 0.075 (≈ 0.0812 µM) | 0.075 (≈ 0.0812 µM) | 0.125 (≈ 0.135 µM) | 0.5 (≈ 0.541 µM) | 0.5 (≈ 0.541 µM) | – | – |
| COc1cc(C2CC(c3cc(OC)c(OC)c(OC)c3)=Nc3c(N)nc(N)nc3N2)ccc1Oc1nc(Nc2ccc(F)cc2)nc(N(C)C)n1 (stereo not shown) [29d] | – | – | 16.1 (≈ 23.1 µM) | 54.5 | – | – | – | – | – | – | > 75 | MIC [5]: 5 µg/mL (≈ 7.17 µM); % Hemolysis [11]: 75% |
